{"source": "paper PMC11876601", "about": "(Molecular Systems Biology, 2025)", "key": {"[1]": {"target": "PTK2B", "design": "method as in Reinecke et al. (2023)", "settings": "5 cell line mix lysate, Kinobeads ε, ref Reinecke et al. (2023), cited from earlier work"}, "[2]": {"tested_on": "FGFR3;FGFR4", "design": "method as in Reinecke et al. (2023)", "settings": "FGFR3;FGFR4, 5 cell line mix lysate, Kinobeads ε, ref Reinecke et al. (2023), cited from earlier work"}, "[3]": {"tested_on": "MAPKAPK5", "design": "method as in Reinecke et al. (2023)", "settings": "MAPKAPK5, 5 cell line mix lysate, Kinobeads ε, ref Reinecke et al. (2023), cited from earlier work"}, "[4]": {"tested_on": "PHKA2", "design": "method as in Reinecke et al. (2023)", "settings": "PHKA2, 5 cell line mix lysate, Kinobeads ε, ref Reinecke et al. (2023), cited from earlier work"}, "[5]": {"tested_on": "PRKD1", "design": "method as in Reinecke et al. (2023)", "settings": "PRKD1, 5 cell line mix lysate, Kinobeads ε, ref Reinecke et al. (2023), cited from earlier work"}, "[6]": {"tested_on": "p-sites in AsPC-1 cells", "experiment": "Phosphoproteomics 1 µM GEM vs. vehicle (4 h)", "format": "cell-based, human", "experimental": "Cell culture medium was replaced 24 h after seeding. […] For time point 0, AsPC-1 cells were treated with a vehicle and lysed immediately. The final DMSO concentration in all experiments was 0.2%.\nBriefly, cells were washed twice with PBS and lysed in SDS lysis buffer (2% SDS in 40 mM Tris-HCl, pH 7.6), followed by sonication for 10 min (30 s on/30 s off) using a Bioruptor (Diagenode). For DNA hydrolysis, samples were boiled at 95 °C for 10 min and incubated with 2% trifluoroacetic acid (TFA) for 1 min, before the reaction was quenched using 4% N-methylmorpholine. Lysate was cleared by centrifugation at 11,000 × g for 5 min and protein concentration was determined using the Pierce BCA Protein Assay Kit (Thermo Scientific).\nUsing 70% ethanol, samples were then precipitated on beads, followed by washing thrice with 80% ethanol and once with 100% acetonitrile. Subsequently, proteins were reduced and alkylated using 10 mM TCEP, 50 mM chloroacetamide, and 2 mM CaCl2 in 100 mM EPPS/NaOH, pH 8.5 for 1 h at 37 °C, followed by tryptic digestion at 37 °C for 16 h. Peptides were acidified with 1% TFA and desalted on Chromabond HLB plates (30 µm particle size, 10 mg capacity, Machery-Nagel), using 0.1% TFA for equilibration and sample loading, and 0.1% TFA in 70% acetonitrile for peptide elution. Recovered peptides were freeze-dried by vacuum-centrifugation and stored at −20 °C.\nDepending on the experiment, samples were either labeled with TMT-11plex (decryptM), TMT-10plex (non-decryptM, quadruplicates), or TMTpro reagent (time-series; all Thermo Scientific). Therefore, dried peptides were reconstituted in 15 µl 100 mM EPPS, pH 8.5 and each treatment condition was labeled with one channel of the respective TMT reagent (5 µl of 25 µg/µl reagent, Appendix Tables S4–S6). The reaction was incubated for 1 h at 23 °C and subsequently quenched with 0.4% hydroxylamine. Then, samples were pooled, acidified with 1% formic acid, and freeze-dried by vacuum-centrifugation. Labeled peptide pools were desalted on C18 Sep-Pak cartridges (37–55 µm particle size, 50 mg capacity, Waters), using 0.1% formic acid as equilibration solvent, and 0.1% formic acid in 60% acetonitrile was used as elution solvent. Eluted peptides were freeze-dried and stored at −20 °C until further use.\nBasic reversed-phase (bRP) fractionation of peptides was performed on a Vanquish HPLC (Thermo Scientific). In short, dried peptides were reconstituted in 200 µl 25 mM ammonium bicarbonate, pH 8.0 and directly injected onto a Waters BEH130 XBridge C18 column (3.5 µm, 4.6 × 250 mm). […] Using an automated fraction collector, 96 fractions were collected between min 7 and 55 after injection. Fractions were acidified with 1% formic acid and pooled to 48 fractions, before they were freeze-dried and stored at −20 °C.\nImmobilized metal ion affinity chromatography (IMAC) enrichment of phosphorylated peptides was performed on the Bravo automated liquid handling platform using AssayMAP Fe(III)-NTA cartridges (Agilent). In brief, the 48 dried peptide fractions were reconstituted in 0.1% TFA in 80% acetonitrile and further pooled to 12 fractions (200 µl final volume per well). The phosphopeptide enrichment protocol embedded in the Agilent AssayMAP Bravo Protein Sample Prep Workbench v2.0 software was run. Thereby, the cartridges were first primed with 150 μl 0.1% TFA in acetonitrile at 300 μl/min, and equilibrated with 150 μl 0.1% TFA in 80% acetonitrile at 10 μl/min. Then, pooled fractions were loaded at 5 µl/min and further washed three times with 150 μl 0.1% TFA in 80% acetonitrile at 50 μl/min. Enriched peptides were eluted with 60 μl 1% ammonium hydroxide at 5 μl/min."}}, "note": "“And” between values parts separate entries of the source, which are not always exact repeats. Identical values can stand only once.", "data": [{"smiles": "COc1cc(N2CCC(N3CCN(C)CC3)CC2)ccc1Nc1ncc(Cl)c(Nc2ccccc2P(C)(C)=O)n1", "note": "[Brigatinib]", "values": [{"measurement": "Kd", "setting": "[1]; read-out: KDapp", "result": 5.14, "unit": "nM"}, {"measurement": "EC50", "setting": "[1]", "result": 12.4, "unit": "nM"}, {"measurement": "pKDapp", "setting": "[1]", "result": 8.29}, {"measurement": "EC50", "setting": "[2]", "result": 617, "unit": "nM"}, {"measurement": "pKDapp", "setting": "[2]", "result": 6.21}, {"measurement": "Kd", "setting": "[2]; read-out: KDapp", "result": 617, "unit": "nM"}, {"measurement": "EC50", "setting": "[3]", "result": 62.7, "unit": "nM"}, {"measurement": "pKDapp", "setting": "[3]", "result": 7.23}, {"measurement": "Kd", "setting": "[3]; read-out: KDapp", "result": 58.3, "unit": "nM"}, {"measurement": "EC50", "setting": "[4]", "result": 19.7, "unit": "nM"}, {"measurement": "pKDapp", "setting": "[4]", "result": 7.71}, {"measurement": "Kd", "setting": "[4]; read-out: KDapp", "result": 19.7, "unit": "nM"}, {"measurement": "EC50", "setting": "[5]", "result": 45.9, "unit": "nM"}, {"measurement": "pKDapp", "setting": "[5]", "result": 7.50}, {"measurement": "Kd", "setting": "[5]; read-out: KDapp", "result": 31.4, "unit": "nM"}]}, {"smiles": "Nc1ccn([C@@H]2O[C@H](CO)[C@@H](O)C2(F)F)c(=O)n1", "note": "[GEM, Gemcitabine]", "values": [{"measurement": "increase of CHEK1-pS468 phosphorylation upon GEM", "setting": "[6]; 1 µM GEM vs. vehicle", "result": "> 18 fold and 18 fold"}, {"measurement": "increase of LRRC42-pS385 upon GEM", "setting": "[6]; 1 µM GEM vs. vehicle", "result": "4.8 fold and ~ 5 fold"}, {"measurement": "increase of NSUN5-pS432 upon GEM", "setting": "[6]; 1 µM GEM vs. vehicle", "result": 7, "unit": "fold"}, {"measurement": "increase of PNISR-pS706 upon GEM", "setting": "[6]; 1 µM GEM vs. vehicle", "result": 4.6, "unit": "fold"}, {"measurement": "induction of HMGA1 pS9 by GEM", "setting": "[6]; 1 µM GEM vs. vehicle", "result": "> 4", "unit": "fold"}, {"measurement": "induction of HMGA1 pS44 by GEM", "setting": "[6]; 1 µM GEM vs. vehicle", "result": "> 4", "unit": "fold"}, {"measurement": "induction of PPM1G pS201 by GEM", "setting": "[6]; 1 µM GEM vs. vehicle", "result": "> 4", "unit": "fold"}, {"measurement": "induction of TSEN34 pS136 by GEM", "setting": "[6]; 1 µM GEM vs. vehicle", "result": "> 4", "unit": "fold"}, {"measurement": "GEM Regulation, PPM1G S201", "setting": "[6]; 1,000 nM GEM vs. vehicle, n=4", "result": "up"}, {"measurement": "GEM Regulation, RALY S176", "setting": "[6]; 1,000 nM GEM vs. vehicle, n=4", "result": "up"}, {"measurement": "GEM_log2FC, PPM1G S201", "setting": "[6]; 1,000 nM GEM vs. vehicle, n=4", "result": 2.66, "unit": "log2"}, {"measurement": "GEM_log2FC, RALY S176", "setting": "[6]; 1,000 nM GEM vs. vehicle, n=4", "result": 3.08, "unit": "log2"}]}]}
